Results as given in patent US20080009418A1, “Selective Inhibitors” (Alchemia LTD., priority 2004, published 2008).

What was measured:
Human neurokinin (NK1) = biological target: T1, Human neurokinin (NK1) (Homo sapiens, UniProt P25103); assay: Radioligand binding, human neurokinin NK1 membranes, filtration, [125I]-Substance P; details: compound at 10 μM; [125I]-Substance P
T1 construct: purchased Perkin Elmer Biosignal
Procedure, shortened: (§1)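 Membranes from cloned human receptors were incubated with compound and radioligand for 1 hour at room temperature. Bound ligand was collected on 0.3% PEI-soaked filters, washed with cold 50 mM Tris-HCl pH 7.4, and counted by scintillation. Percent inhibition was computed against DMSO totals and reference-ligand nonspecific wells.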

Mouse urotensin (mUR2) = biological target: T2, Mouse urotensin (mUR2) (Mus musculus, UniProt Q8VIH9); assay: Radioligand binding, mouse urotensin mUR2 membranes, FlashPlate, [125I]-Urotensin II; details: compound at 10 μM; [125I]-Urotensin II
T2 construct: purchased Perkin Elmer Biosignal
T2 sequence (Q8VIH9 1-385): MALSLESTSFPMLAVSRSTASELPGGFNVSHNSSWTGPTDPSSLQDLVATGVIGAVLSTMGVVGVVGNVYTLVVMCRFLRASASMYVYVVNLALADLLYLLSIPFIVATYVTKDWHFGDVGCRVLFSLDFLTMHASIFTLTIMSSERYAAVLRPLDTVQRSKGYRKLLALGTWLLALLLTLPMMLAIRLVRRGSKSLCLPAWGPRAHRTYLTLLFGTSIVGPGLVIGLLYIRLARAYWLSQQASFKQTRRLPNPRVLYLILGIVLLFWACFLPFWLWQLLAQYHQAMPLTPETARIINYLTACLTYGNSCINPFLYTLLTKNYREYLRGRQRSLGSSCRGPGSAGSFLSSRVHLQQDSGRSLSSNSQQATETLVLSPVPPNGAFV
Procedure, shortened: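 Cloned mouse urotensin (mUR2) receptor membranes from Perkin Elmer Biosignal were immobilized in FlashPlate microplates using a proprietary coating. Each well got 19.5 μl buffer, then 0.5 μl of DMSO, reference ligand, or compound. Adding 5 μl of [125I]-Urotensin II, diluted to 5× final concentration in binding buffer, started binding. Plates were sealed with TopSeal-A and incubated 1 hour at room temperature in the dark. Wells were counted for 30 seconds each on a TopCount after a 60-second delay, and percentage inhibition was calculated.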

Human Melanocortin (MC4) = biological target: T3, Human Melanocortin (MC4) (Homo sapiens, UniProt P32245); assay: Radioligand binding, human melanocortin MC4 membranes, FlashPlate, [125I]-NDP-αMSH; details: compound at 10 μM, [125I]-NDP-αMSH
T3 construct: purchased Perkin Elmer Biosignal
Procedure, shortened: (§2)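 Cloned human receptor membranes were coated onto FlashPlate wells and incubated with radioligand and compound (added from a 0.5 mM DMSO daughter plate) for 1 hour at room temperature in the dark. Scintillation counting gave percent inhibition, with DMSO defining total and reference ligand defining non-specific binding.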

Human δ-opioid (DOP) = biological target: T4, Human δ-opioid (DOP) (Homo sapiens, UniProt P41143); assay: Radioligand binding, human δ-opioid (DOP) membranes, FlashPlate, [3H]-Bremazocine; details: compound at 10 μM; [3H]-Bremazocine
T4 construct: purchased Perkin Elmer Biosignal
Procedure, shortened: as §2

[1] = biological target: T5, Human melanin-concentrating hormone (MCH1) (Homo sapiens, UniProt Q99705); assay: Radioligand binding, human melanin-concentrating hormone MCH1 membranes, FlashPlate, [125I]-S36057; details: compound at 10 μM, [125I]-S36057
T5 construct: purchased Perkin Elmer Biosignal
Procedure, shortened: as §2

Human melanocortin (MC5) = biological target: T6, Human melanocortin (MC5) (Homo sapiens, UniProt P33032); assay: Radioligand binding, human melanocortin MC5 membranes, FlashPlate, [125I]-NDP-αMSH; details: compound at 10 μM, [125I]-NDP-αMSH
T6 construct: purchased Perkin Elmer Biosignal
Procedure, shortened: as §2

Human μ-opioid (MOP) = biological target: T7, Human μ-opioid (MOP) (Homo sapiens, UniProt P35372); assay: Radioligand binding, human μ-opioid (MOP) membranes, FlashPlate, [3H]-Naloxone; details: compound at 10 μM; [3H]-Naloxone
T7 construct: purchased Perkin Elmer Biosignal
Procedure, shortened: as §2

Human Melanocortin (MC3) = biological target: T8, Human Melanocortin (MC3) (Homo sapiens, UniProt P41968); assay: Radioligand binding, human melanocortin MC3 membranes, FlashPlate, [125I]-NDP-αMSH; details: compound at 10 μM, [125I]-NDP-αMSH
T8 construct: purchased Perkin Elmer Biosignal
Procedure, shortened: as §2

Human κ-Opioid (KOP) = biological target: T9, Human κ-Opioid (KOP) (Homo sapiens, UniProt P41145); assay: Radioligand binding, human κ-opioid (KOP) membranes, filtration, [3H]-Diprenorphine; details: compound at 10 μM, [3H]-Diprenorphine
T9 construct: purchased Perkin Elmer Biosignal
Procedure, shortened: as §1

Human opioid (ORL1) = biological target: T10, Human opioid (ORL1) (Homo sapiens, UniProt P41146); assay: Radioligand binding, human opioid ORL1 membranes, FlashPlate, [125I]-Nociceptin; details: compound at 10 μM; [125I]-Nociceptin
T10 construct: purchased Perkin Elmer Biosignal
Procedure, shortened: as §2

[2] = biological target: T11, Human neuropeptide Y (NPY-Y1) (Homo sapiens, UniProt P25929); assay: Radioligand binding, human neuropeptide Y NPY-Y1 membranes, FlashPlate, [125I]-PYY; details: compound at 10 μM; [125I]-PYY
T11 construct: purchased Perkin Elmer Biosignal
T11 sequence (P25929 1-384): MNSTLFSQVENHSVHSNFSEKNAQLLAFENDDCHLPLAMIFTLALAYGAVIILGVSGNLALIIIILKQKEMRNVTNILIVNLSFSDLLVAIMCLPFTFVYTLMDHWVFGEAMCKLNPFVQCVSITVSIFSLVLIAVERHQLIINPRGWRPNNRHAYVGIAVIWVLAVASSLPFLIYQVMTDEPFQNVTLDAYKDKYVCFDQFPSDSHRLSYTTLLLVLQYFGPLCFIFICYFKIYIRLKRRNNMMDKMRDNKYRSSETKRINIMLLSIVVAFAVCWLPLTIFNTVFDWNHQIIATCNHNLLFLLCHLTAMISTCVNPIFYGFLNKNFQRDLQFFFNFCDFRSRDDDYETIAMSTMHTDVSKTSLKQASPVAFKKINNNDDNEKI
Procedure, shortened: as §2

T5 sequence (Q99705 whole entry): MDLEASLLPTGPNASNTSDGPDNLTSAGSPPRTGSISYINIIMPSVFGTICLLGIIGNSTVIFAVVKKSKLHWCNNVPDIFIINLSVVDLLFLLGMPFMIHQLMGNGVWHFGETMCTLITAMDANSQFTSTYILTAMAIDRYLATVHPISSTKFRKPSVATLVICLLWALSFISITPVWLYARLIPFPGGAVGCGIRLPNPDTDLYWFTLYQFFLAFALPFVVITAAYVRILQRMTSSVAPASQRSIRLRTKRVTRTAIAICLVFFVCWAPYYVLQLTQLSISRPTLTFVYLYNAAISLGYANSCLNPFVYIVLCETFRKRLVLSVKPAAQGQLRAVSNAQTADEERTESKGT
T1 sequence (P25103 whole entry): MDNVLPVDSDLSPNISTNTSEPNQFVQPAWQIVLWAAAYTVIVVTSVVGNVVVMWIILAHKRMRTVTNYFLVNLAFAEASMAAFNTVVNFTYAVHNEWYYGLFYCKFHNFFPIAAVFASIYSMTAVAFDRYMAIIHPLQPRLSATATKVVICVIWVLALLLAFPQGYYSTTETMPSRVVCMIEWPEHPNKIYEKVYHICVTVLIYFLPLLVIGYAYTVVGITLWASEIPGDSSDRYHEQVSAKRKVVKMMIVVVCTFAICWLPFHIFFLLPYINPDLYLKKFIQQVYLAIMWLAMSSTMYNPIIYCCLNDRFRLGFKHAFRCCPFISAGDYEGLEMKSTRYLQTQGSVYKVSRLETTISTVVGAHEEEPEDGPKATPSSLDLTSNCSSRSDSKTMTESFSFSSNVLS
T10 sequence (P41146 whole entry): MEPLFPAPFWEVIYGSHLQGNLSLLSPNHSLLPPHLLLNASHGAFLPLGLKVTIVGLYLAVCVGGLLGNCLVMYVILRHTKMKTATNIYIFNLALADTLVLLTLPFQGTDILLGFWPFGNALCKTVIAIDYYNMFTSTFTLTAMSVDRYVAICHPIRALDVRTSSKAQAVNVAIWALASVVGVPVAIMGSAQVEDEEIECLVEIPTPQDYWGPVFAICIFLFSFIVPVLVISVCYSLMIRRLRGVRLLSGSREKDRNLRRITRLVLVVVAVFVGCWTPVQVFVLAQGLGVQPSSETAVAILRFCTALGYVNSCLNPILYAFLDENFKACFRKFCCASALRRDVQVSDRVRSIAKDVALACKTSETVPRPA
T4 sequence (P41143 whole entry): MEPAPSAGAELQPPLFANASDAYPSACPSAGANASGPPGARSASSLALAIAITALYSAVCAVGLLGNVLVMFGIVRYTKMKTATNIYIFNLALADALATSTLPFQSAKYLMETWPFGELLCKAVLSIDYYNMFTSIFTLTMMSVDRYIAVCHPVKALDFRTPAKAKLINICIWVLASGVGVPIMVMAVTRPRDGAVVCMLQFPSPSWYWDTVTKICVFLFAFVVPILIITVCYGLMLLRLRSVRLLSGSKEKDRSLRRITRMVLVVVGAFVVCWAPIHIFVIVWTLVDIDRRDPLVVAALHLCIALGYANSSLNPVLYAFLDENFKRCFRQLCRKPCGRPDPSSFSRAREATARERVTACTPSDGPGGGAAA
T9 sequence (P41145 whole entry): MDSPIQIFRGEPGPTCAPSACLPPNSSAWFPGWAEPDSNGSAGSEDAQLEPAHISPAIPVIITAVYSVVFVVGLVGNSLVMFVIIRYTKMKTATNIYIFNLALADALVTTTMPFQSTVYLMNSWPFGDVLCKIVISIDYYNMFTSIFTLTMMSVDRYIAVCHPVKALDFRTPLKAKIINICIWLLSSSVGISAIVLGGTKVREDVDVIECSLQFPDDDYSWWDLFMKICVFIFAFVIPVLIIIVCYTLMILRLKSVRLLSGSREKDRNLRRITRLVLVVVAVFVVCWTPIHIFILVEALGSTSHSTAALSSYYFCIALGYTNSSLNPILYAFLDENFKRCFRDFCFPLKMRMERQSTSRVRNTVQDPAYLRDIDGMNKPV
T7 sequence (P35372 whole entry): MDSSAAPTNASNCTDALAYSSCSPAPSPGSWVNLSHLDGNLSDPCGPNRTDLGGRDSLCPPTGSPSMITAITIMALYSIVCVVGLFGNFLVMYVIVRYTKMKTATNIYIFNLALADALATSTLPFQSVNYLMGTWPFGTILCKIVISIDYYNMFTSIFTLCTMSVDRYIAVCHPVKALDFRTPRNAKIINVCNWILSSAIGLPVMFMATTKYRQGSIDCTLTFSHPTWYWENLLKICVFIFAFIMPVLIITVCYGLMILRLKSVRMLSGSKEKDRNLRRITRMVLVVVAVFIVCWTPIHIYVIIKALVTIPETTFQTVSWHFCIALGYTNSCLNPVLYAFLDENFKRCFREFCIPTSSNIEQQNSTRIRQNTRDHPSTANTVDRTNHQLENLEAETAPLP
T8 sequence (P41968 whole entry): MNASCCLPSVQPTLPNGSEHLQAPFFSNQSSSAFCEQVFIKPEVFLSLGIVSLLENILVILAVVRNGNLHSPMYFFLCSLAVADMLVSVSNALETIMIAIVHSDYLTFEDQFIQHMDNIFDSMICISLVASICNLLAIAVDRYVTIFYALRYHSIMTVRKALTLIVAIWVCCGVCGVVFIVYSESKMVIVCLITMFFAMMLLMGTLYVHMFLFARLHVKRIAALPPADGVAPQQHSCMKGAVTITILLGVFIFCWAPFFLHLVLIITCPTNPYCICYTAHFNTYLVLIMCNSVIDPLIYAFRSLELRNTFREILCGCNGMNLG
T6 sequence (P33032 whole entry): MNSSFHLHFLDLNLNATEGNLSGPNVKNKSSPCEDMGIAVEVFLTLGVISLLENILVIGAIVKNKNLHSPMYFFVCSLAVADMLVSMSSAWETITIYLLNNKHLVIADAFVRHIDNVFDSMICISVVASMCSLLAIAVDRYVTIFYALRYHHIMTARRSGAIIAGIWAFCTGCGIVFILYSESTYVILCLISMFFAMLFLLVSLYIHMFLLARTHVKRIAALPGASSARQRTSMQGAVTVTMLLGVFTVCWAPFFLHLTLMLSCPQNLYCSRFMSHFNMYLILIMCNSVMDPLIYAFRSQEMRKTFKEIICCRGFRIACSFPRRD
T3 sequence (P32245 whole entry): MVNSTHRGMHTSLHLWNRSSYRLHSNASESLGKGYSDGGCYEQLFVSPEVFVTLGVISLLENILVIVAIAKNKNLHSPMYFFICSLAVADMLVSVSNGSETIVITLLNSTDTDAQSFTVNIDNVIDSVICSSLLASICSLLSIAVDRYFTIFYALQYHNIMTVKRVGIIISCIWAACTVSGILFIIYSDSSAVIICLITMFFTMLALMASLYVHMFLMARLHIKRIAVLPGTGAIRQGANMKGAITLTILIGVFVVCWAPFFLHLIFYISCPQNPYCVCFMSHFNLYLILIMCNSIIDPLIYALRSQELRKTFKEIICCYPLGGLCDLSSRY

| Structure (SMILES) | A8: inhibition of radioligand binding, human neurokinin (NK1) (Human neurokinin (NK1)) | A11: inhibition of radioligand binding, mouse urotensin (mUR2) (Mouse urotensin (mUR2)) | A4: inhibition of radioligand binding, human melanocortin (MC4) (Human Melanocortin (MC4); 10 µM) | A1: inhibition of radioligand binding, human δ-opioid (DOP) (Human δ-opioid (DOP)) | A6: inhibition of radioligand binding, human melanin-concentrating hormone (MCH1) ([1]; 10 µM) | A5: inhibition of radioligand binding, human melanocortin (MC5) (Human melanocortin (MC5); 10 µM) | A7: inhibition of radioligand binding, human μ-opioid (MOP) (Human μ-opioid (MOP)) | A3: inhibition of radioligand binding, human melanocortin (MC3) (Human Melanocortin (MC3); 10 µM) | A2: inhibition of radioligand binding, human κ-opioid (KOP) (Human κ-Opioid (KOP); 10 µM) | A10: inhibition of radioligand binding, human opioid (ORL1) (Human opioid (ORL1)) | A9: inhibition of radioligand binding, human neuropeptide Y (NPY-Y1) [2] | A4: inhibition of radioligand binding, human melanocortin (MC4) (Human Melanocortin (MC4)) | A6: inhibition of radioligand binding, human melanin-concentrating hormone (MCH1) [1] | A5: inhibition of radioligand binding, human melanocortin (MC5) (Human melanocortin (MC5)) | A3: inhibition of radioligand binding, human melanocortin (MC3) (Human Melanocortin (MC3)) | A2: inhibition of radioligand binding, human κ-opioid (KOP) (Human κ-Opioid (KOP)) |
| --- | --- | --- | --- | --- | --- | --- | --- | --- | --- | --- | --- | --- | --- | --- | --- | --- |
| N=C(N)NCCC(=O)N[C@H]1C(OCc2ccc(Cl)cc2)O[C@H](COCc2ccc3ccccc3c2)[C@@H](O)[C@@H]1OCc1ccc2ccccc2c1 (stereo partly shown) [compound 529] | + (“+” indicates greater than 50% inhibition at 10 μM) | − (“−” indicates less than 50% inhibition at 10 μM) | + (“+” indicates greater than 50% inhibition at 10 μM) | − (“−” indicates less than 50% inhibition at 10 μM) | + (“+” indicates greater than 50% inhibition at 10 μM) | + (“+” indicates greater than 50% inhibition at 10 μM) | − (“−” indicates less than 50% inhibition at 10 μM) | + (“+” indicates greater than 50% inhibition at 10 μM) | + (“+” indicates greater than 50% inhibition at 10 μM) | − (“−” indicates less than 50% inhibition at 10 μM) | − (“−” indicates less than 50% inhibition at 10 μM) | – | – | – | – | – |
| N=C(N)NCCC(=O)N[C@H]1C(OCc2ccc(Cl)cc2)O[C@H](COCc2ccccc2)[C@@H](O)[C@@H]1OCc1ccc2ccccc2c1 (stereo partly shown) [compound 530] | + (“+” indicates greater than 50% inhibition at 10 μM) | − (“−” indicates less than 50% inhibition at 10 μM) | – | − (“−” indicates less than 50% inhibition at 10 μM) | – | – | + (“+” indicates greater than 50% inhibition at 10 μM) | – | – | + (“+” indicates greater than 50% inhibition at 10 μM) | − (“−” indicates less than 50% inhibition at 10 μM) | + (“+” indicates greater than 50% inhibition at 10 μM) | + (“+” indicates greater than 50% inhibition at 10 μM) | + (“+” indicates greater than 50% inhibition at 10 μM) | + (“+” indicates greater than 50% inhibition at 10 μM) | + (“+” indicates greater than 50% inhibition at 10 μM) |
| N=C(N)NCCC(=O)N[C@H]1C(OCc2ccc(Cl)cc2)O[C@H](COCc2ccccc2)[C@@H](O)[C@@H]1OCc1ccc2ccccc2c1 (stereo partly shown) [compound 531] | + (“+” indicates greater than 50% inhibition at 10 μM) | − (“−” indicates less than 50% inhibition at 10 μM) | – | − (“−” indicates less than 50% inhibition at 10 μM) | – | – | + (“+” indicates greater than 50% inhibition at 10 μM) | – | – | + (“+” indicates greater than 50% inhibition at 10 μM) | − (“−” indicates less than 50% inhibition at 10 μM) | + (“+” indicates greater than 50% inhibition at 10 μM) | + (“+” indicates greater than 50% inhibition at 10 μM) | + (“+” indicates greater than 50% inhibition at 10 μM) | + (“+” indicates greater than 50% inhibition at 10 μM) | + (“+” indicates greater than 50% inhibition at 10 μM) |
| N=C(N)NCCC(=O)N[C@H]1C(OCc2ccc(Cl)cc2)O[C@H](COCc2ccc(Cl)cc2)[C@@H](O)[C@@H]1OCc1ccc2ccccc2c1 (stereo partly shown) [compound 532] | + (“+” indicates greater than 50% inhibition at 10 μM) | − (“−” indicates less than 50% inhibition at 10 μM) | – | − (“−” indicates less than 50% inhibition at 10 μM) | – | – | + (“+” indicates greater than 50% inhibition at 10 μM) | – | – | + (“+” indicates greater than 50% inhibition at 10 μM) | − (“−” indicates less than 50% inhibition at 10 μM) | + (“+” indicates greater than 50% inhibition at 10 μM) | + (“+” indicates greater than 50% inhibition at 10 μM) | + (“+” indicates greater than 50% inhibition at 10 μM) | + (“+” indicates greater than 50% inhibition at 10 μM) | + (“+” indicates greater than 50% inhibition at 10 μM) |
| N=C(N)NCCC(=O)N[C@H]1C(OCc2ccc(Cl)cc2)O[C@H](COCc2ccc3ccccc3c2)[C@@H](O)[C@@H]1OCc1ccc(-c2ccccc2)cc1 (stereo partly shown) [compound 533] | + (“+” indicates greater than 50% inhibition at 10 μM) | − (“−” indicates less than 50% inhibition at 10 μM) | – | − (“−” indicates less than 50% inhibition at 10 μM) | – | – | − (“−” indicates less than 50% inhibition at 10 μM) | – | – | − (“−” indicates less than 50% inhibition at 10 μM) | − (“−” indicates less than 50% inhibition at 10 μM) | + (“+” indicates greater than 50% inhibition at 10 μM) | + (“+” indicates greater than 50% inhibition at 10 μM) | + (“+” indicates greater than 50% inhibition at 10 μM) | + (“+” indicates greater than 50% inhibition at 10 μM) | − (“−” indicates less than 50% inhibition at 10 μM) |
